Assay results as given in patent US11541132B2, “Radiolabeled compounds” (Hoffmann-La Roche Inc., priority 2017, dated 2023).

Legend:
[1] = biological target: T1, native aSyn aggregates in A30P transgenic mouse brain sections (Homo sapiens, UniProt P37840, A30P); assay: aSyn in vitro displacement assay ([3H]Example-3 autoradiography); assay type: binding, mutant human aSyn gene); conditions: 3 nM [3H]Example-3, A30P transgenic mouse brain sections; for inhibition at 1 µM: 1 μM compound, read-out: PCT_INHIB A30P @ 1 μM (% displacement of [3H]Example-3); for inhibition at 3 µM: 3 μM compound, read-out: PCT_INHIB A30P @ 3 μM
T1 construct: from tissue; host or cells: brain sections (midbrain and pons as ROI) of A30P transgenic mice, line B6.D2-Tg(Thy1-SNCA*30P)31Pjk

[2] = biological target: T2, native Aβ aggregates in human AD brain tissue sections (Homo sapiens, UniProt P05067); assay: Aβ in vitro displacement assay (selectivity counterscreen, [3H]Example 3 autoradiography); assay type: binding; conditions: 3 nM [3H]Example 3, human AD brain sections; for inhibition at 1 µM: 1 μM compound, read-out: sel. counterscreen PCT_INHIB AD @ 1 μM (% displacement of [3H]Example 3); for inhibition at 3 µM: 3 μM compound, read-out: sel. counterscreen PCT_INHIB AD @ 3 μM
T2 construct: native Aβ aggregates in human AD brain tissue samples; from tissue; host or cells: human AD brain tissue sections
T2 sequence (P05067 672-713 limits assumed): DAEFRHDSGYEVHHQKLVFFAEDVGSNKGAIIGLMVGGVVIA

Row | inhibition at 1 µM [1] | inhibition at 1 µM [2] | inhibition at 3 µM [1] | inhibition at 3 µM [2] | SMILES
1 | 84% | 87% | – | – | N#Cc1ccc(N2CCN(c3ccc(NC(=O)c4ccncc4)cc3)CC2)nc1 [Example 161, N-(4-(4-(5-Cyanopyridin-2-yl)piperazin-1-yl)phenyl)isonicotinamide]
2 | 84% | 78% | – | – | COc1ccc(C(=O)Nc2ccc(N3CCN(c4ccc(C#N)cn4)CC3)cc2)nc1 [Example 162, N-(4-(4-(5-Cyanopyridin-2-yl)piperazin-1-yl)phenyl)-5-methoxypicolinamide]
3 | 94% | 92% | – | – | COc1ccc(C(=O)Nc2ccc(N3CCN(c4ccc(C#N)cc4)CC3)cc2)cc1F [Example 163, N-(4-(4-(4-Cyanophenyl)piperazin-1-yl)phenyl)-3-fluoro-4-methoxybenzamide]
4 | 80% | 90% | – | – | N#Cc1ccc(C(=O)Nc2ccc(N3CCN(c4ccc(C#N)cn4)CC3)cc2)cc1 [Example 164, 4-Cyano-N-(4-(4-(5-cyanopyridin-2-yl)piperazin-1-yl)phenyl)benzamide]
5 | 86% | 90% | – | – | N#Cc1ccc(N2CCN(c3ccc(NC(=O)c4ccncn4)cc3)CC2)cc1 [Example 165, N-(4-(4-(4-Cyanophenyl)piperazin-1-yl)phenyl)pyrimidine-4-carboxamide]
6 | 81% | 70% | – | – | COc1ccc(C(=O)Nc2ccc(N3CCN(c4ccc(C#N)cc4)CC3)cc2)nc1 [Example 166, N-(4-(4-(4-Cyanophenyl)piperazin-1-yl)phenyl)-5-methoxypicolinamide]
7 | 91% | 88% | – | – | COc1ccc(C(=O)Nc2ccc(N3CCN(c4ccc(C#N)cc4)CC3)cc2)cc1C [Example 167, N-(4-(4-(4-Cyanophenyl)piperazin-1-yl)phenyl)-4-methoxy-3-methylbenzamide]
8 | 95% | 96% | – | – | COc1ccc(C(=O)Nc2ccc(N3CCN(c4ccc(C#N)cc4)CC3)cc2)c(C)c1 [Example 168, N-(4-(4-(4-Cyanophenyl)piperazin-1-yl)phenyl)-4-methoxy-2-methylbenzamide]
9 | 83% | 82% | – | – | COc1ccc(C(=O)Nc2ccc(N3CCN(c4ccc(C#N)cc4)CC3)cc2)cc1OC [Example 169, N-(4-(4-(4-Cyanophenyl)piperazin-1-yl)phenyl)-3,4-dimethoxybenzamide]
10 | 86% | 82% | – | – | COc1ccc(C(=O)Nc2ccc(N3CCN(c4ccc(C#N)cn4)CC3)cc2)cc1C [Example 170, N-(4-(4-(5-Cyanopyridin-2-yl)piperazin-1-yl)phenyl)-4-methoxy-3-methylbenzamide]
11 | 89% | 92% | – | – | COc1ccc(C(=O)Nc2ccc(N3CCN(c4ccc(C#N)cn4)CC3)cc2)cn1 [Example 171, N-(4-(4-(5-Cyanopyridin-2-yl)piperazin-1-yl)phenyl)-6-methoxynicotinamide]
12 | 93% | 84% | – | – | COC(=O)c1ccc(N2CCN(c3ccc(NC(=O)c4ccc(OC)cc4)cc3)CC2)nc1 [Example 172, Methyl 6-(4-(4-(4-methoxybenzamido)phenyl)piperazin-1-yl)nicotinate]
13 | 83% | 82% | – | – | COc1ccc(C(=O)Nc2ccc(N3CCN(c4ccc(C#N)nc4)CC3)cc2)nc1 [Example 173, N-(4-(4-(6-Cyanopyridin-3-yl)piperazin-1-yl)phenyl)-5-methoxypicolinamide]
14 | – | – | 87% | 100% | C#CCOc1ccc(C(=O)Nc2ccc(N3CCN(c4ccc(C#N)cn4)CC3)cc2)cc1 [Example 174, N-[4-[4-(5-Cyano-2-pyridyl)piperazin-1-yl]phenyl]-4-prop-2-ynoxy-benzamide]
15 | – | – | 85% | 98% | C#CCOCCOc1ccc(C(=O)Nc2ccc(N3CCN(c4ccc(C#N)cn4)CC3)cc2)cc1 [Example 175, N-[4-[4-(5-Cyano-2-pyridyl)piperazin-1-yl]phenyl]-4-(2-prop-2-ynoxyethoxy)benzamide]
